Measurements: patent US20230373937A1, “INHIBITORS OF SPINSTER HOMOLOG 2 (SPNS2) FOR USE IN THERAPY” (University of Virginia Patent Foundation, priority 2020, published 2023)
Structures can show the parent of a compound that is named as a salt.

Molecular target: T1, SPNS2 (Mus musculus, UniProt Q91VM4)
T1 construct: expressed in transfected cells; host or cells: HeLa or U937 cells
T1 sequence (Q91VM4 1-549): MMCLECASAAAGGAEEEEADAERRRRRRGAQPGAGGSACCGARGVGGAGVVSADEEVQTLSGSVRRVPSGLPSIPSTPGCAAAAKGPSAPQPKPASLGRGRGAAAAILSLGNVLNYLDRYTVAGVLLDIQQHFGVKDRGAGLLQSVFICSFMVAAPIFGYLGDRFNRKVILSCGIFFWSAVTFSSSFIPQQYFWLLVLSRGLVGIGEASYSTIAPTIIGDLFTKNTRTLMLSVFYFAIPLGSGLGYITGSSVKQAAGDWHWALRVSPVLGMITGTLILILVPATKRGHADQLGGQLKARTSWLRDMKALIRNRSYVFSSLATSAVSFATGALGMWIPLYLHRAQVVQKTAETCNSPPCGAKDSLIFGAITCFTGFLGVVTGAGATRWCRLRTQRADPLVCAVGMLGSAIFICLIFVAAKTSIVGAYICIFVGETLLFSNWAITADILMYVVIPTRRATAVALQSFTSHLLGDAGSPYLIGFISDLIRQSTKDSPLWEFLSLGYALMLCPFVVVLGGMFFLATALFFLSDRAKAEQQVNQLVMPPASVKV
Test: S1P transporter assay: S1P release from whole cells expressing SPNS2
Format: cell-based
Conditions: HeLa or U937 cells expressing mouse SPNS2; 18 hours; S1P in media measured by LC-MS; read-out: IC50 (in vitro inhibition against SPNS2)
Description: Transporter assays are vectorial and therefore require measurement of the transported analyte in different compartments. The S1P transporter SPNS2 only exports S1P, which obviates measuring uptake of S1P into transporter-expressing cells. Thus, transporter activity was determined by quantifying S1P release from whole cells expressing SPNS2. SPNS2 inhibitor potency was assessed using whole cell assays. HeLa or U937 cells expressing mouse SPNS2 were used to determine inhibitor potency (IC50). Cells were plated onto 12 well plates and assayed when the cell monolayers became confluent. Cell growth media (RPMI-1640 containing 10% fetal bovine serum) was replaced with 2 mL of serum-free media (RPMI-1640) containing fatty acid free bovine serum albumin (BSA) (0.2% w/v) and supplemented with 4-deoxypyridoxine (DOP) (1 mM), NaF (2 mM), Na3VO4 (0.2 mM) to inhibit S1P degradation. Test articles (1×10-9-1×10^-4 M) were assayed in duplicate or triplicate. After 18 hours, media was collected, an internal recovery standard (0.005 mL of 5×10^-7 M deuterated (d7) S1P in methanol) was added, the BSA was precipitated with trichloroacetic acid and the bound S1P extracted with methanol. S1P and S1P-d7 were measured by liquid chromatography mass spectrometry. Inhibitor potency at the human SPNS2 ortholog was determined by an analogous assay using U-937 cells, which endogenously express human SPNS2.

| SMILES | IC50 |
| --- | --- |
| CCCCCCCCCCc1ccc(-c2noc([C@@H]3CC[C@H](N)C3)n2)cc1 [Compound 5d, (1S,3R)-3-(3-(4-decylphenyl)-1,2,4-oxadiazol-5-yl)cyclopentan-1-amine hydrochloride] | > 2000 nM |
| CCCCCCCCCCc1ccc(-c2noc(CCCN3CCOCC3)n2)cc1 [Compound 6f, 4-(3-(3-(4-decylphenyl)-1,2,4-oxadiazol-5-yl)propyl)morpholine hydrochloride] | > 2000 nM |
| CCCCCCCCCCc1ccc(-c2noc(CC(CN)OC(C)=O)n2)cc1 (stereo not shown) [Compound 5n, 1-amino-3-(3-(4-decylphenyl)-1,2,4-oxadiazol-5-yl)propan-2-yl acetate hydrochloride] | > 2000 nM |
| CCCCCCCCCCc1ccc(-c2noc([C@H](CCCCN)NC(C)=O)n2)cc1 [Compound 21, (S)—N-(5-amino-1-(3-(4-decylphenyl)-1,2,4-oxadiazol-5-yl)pentyl)acetamide hydrochloride] | > 2000 nM |
| CCCCCCCCCCc1ccc(-c2noc(CCCN(C)C)n2)cc1 [Compound 5l, 3-(3-(4-decylphenyl)-1,2,4-oxadiazol-5-yl)-N,N-dimethylpropan-1-amine hydrochloride] | > 2000 nM |
| CCCCCCCCCCc1ccc(-c2noc(CC(O)CN3CCCCC3)n2)cc1 (stereo not shown) [Compound 6a, 1-(3-(4-decylphenyl)-1,2,4-oxadiazol-5-yl)-3-(piperidin-1-yl)propan-2-ol hydrochloride] | > 2000 nM |
| NCCCc1nc(-c2ccc(OCc3ccccc3)cc2)no1 [Compound 5i, 3-(3-(4-(benzyloxy)phenyl)-1,2,4-oxadiazol-5-yl)propan-1-amine hydrochloride] | > 2000 nM |
| CCCCCCCCCCc1cccc(-c2noc(CCCN)n2)c1 [Compound 5j, 3-(3-(3-decylphenyl)-1,2,4-oxadiazol-5-yl)propan-1-amine hydrochloride] | ≤ 2000 nM |
| CCCCCCCCCCc1ccc(-c2noc(CN3CCNCC3)n2)cc1 [Compound 5h, 3-(4-decylphenyl)-5-(piperazin-1-ylmethyl)-1,2,4-oxadiazole 2,2,2-trifluoroacetate] | ≤ 2000 nM |
| CCCCCCCCCCc1ccc(-c2noc(C(Cl)CCN)n2)cc1 (racemic) [Compound 5k, (±)-3-chloro-3-(3-(4-decylphenyl)-1,2,4-oxadiazol-5-yl)propan-1-amine hydrochloride] | > 2000 nM |
| CCCCCCCCCCc1ccc(-c2noc(CC(O)CNCC)n2)cc1 (stereo not shown) [Compound 7a, 1-(3-(4-decylphenyl)-1,2,4-oxadiazol-5-yl)-3-(ethylamino)propan-2-ol hydrochloride] | > 2000 nM |
| CCCCCCCCCCc1ccc(-c2noc(CCN)n2)cc1 [Compound 5b, 2-(3-(4-decylphenyl)-1,2,4-oxadiazol-5-yl)ethan-1-amine 2,2,2-trifluoroacetate] | ≤ 2000 nM |
| CCCCCCCCCCc1ccc(-c2noc(C3CCNCC3)n2)cc1 [Compound 5a, 3-(4-decylphenyl)-5-(piperidin-4-yl)-1,2,4-oxadiazole 2,2,2-trifluoroacetate] | > 2000 nM |
| CCCCCCCCCCc1ccc(-c2noc(CCCN3CCCC3)n2)cc1 [Compound 6d, 3-(4-decylphenyl)-5-(3-(pyrrolidin-1-yl)propyl)-1,2,4-oxadiazole hydrochloride] | > 2000 nM |
| CCCCCCCCCCc1ccc(-c2noc(CC(O)CN)n2)cc1 (stereo not shown) [Compound 5g, 1-amino-3-(3-(4-decylphenyl)-1,2,4-oxadiazol-5-yl)propan-2-ol hydrochloride] | > 2000 nM |
| CCCCCCCCCCc1ccc(-c2noc(CC(O)CN3CCOCC3)n2)cc1 (stereo not shown) [Compound 6c, 1-(3-(4-decylphenyl)-1,2,4-oxadiazol-5-yl)-3-morpholinopropan-2-ol hydrochloride] | > 2000 nM |
| CCCCCCCCCCc1ccc(-c2noc(CCCNC)n2)cc1 [Compound 5m, 3-(3-(4-decylphenyl)-1,2,4-oxadiazol-5-yl)-N-methylpropan-1-amine hydrochloride] | > 2000 nM |

Further lines, results first:

| IC50 | SMILES |
| --- | --- |
| > 2000 nM | CCCCCCCCCCc1ccc(-c2noc(CNC(=O)C3CCNCC3)n2)cc1 [Compound 9p, N-((3-(4-decylphenyl)-1,2,4-oxadiazol-5-yl)methyl)piperidine-4-carboxamide hydrochloride] |
| > 2000 nM | CCCCCCCCCCc1ccc(-c2noc([C@H](N)CCCCN)n2)cc1 [Compound 19d, (R)-1-(3-(4-decylphenyl)-1,2,4-oxadiazol-5-yl)pentane-1,5-diamine dihydrochloride] |
| ≤ 2000 nM | CCCCCCCCCCc1ccc(-c2noc([C@@H]3CCN(C(=O)[C@H](C)N)C3)n2)cc1 [Compound 9ak, (S)-2-amino-1-((R)-3-(3-(4-decylphenyl)-1,2,4-oxadiazol-5-yl)pyrrolidin-1-yl)propan-1-one 2,2,2-trifluoroacetate] |
| ≤ 2000 nM | CCCCCCCCCCc1ccc(-c2noc(CNC(=O)[C@@H]3CCCNC3)n2)cc1 [Compound 9ag, (R)—N-((3-(4-decylphenyl)-1,2,4-oxadiazol-5-yl)methyl)piperidine-3-carboxamide hydrochloride] |
| > 2000 nM | CCCCCCCCCCc1ccc(-c2noc([C@@H]3CCN(C(=O)[C@@H](N)CO)C3)n2)cc1 [Compound 9aj] |
| ≤ 2000 nM | CCCCCCCCCCc1ccc(-c2noc(CNC(=O)CCCN)n2)cc1 [Compound 9d, 4-amino-N-((3-(4-decylphenyl)-1,2,4-oxadiazol-5-yl)methyl)butanamide hydrochloride] |
| ≤ 2000 nM | CCCCCCCCCCc1ccc(-c2noc(CNC(=O)[C@@H]3CCNC3)n2)cc1 [Compound 9j, (R)—N-((3-(4-decylphenyl)-1,2,4-oxadiazol-5-yl)methyl)pyrrolidine-3-carboxamide hydrochloride] |
| > 2000 nM | CCCCCCCCCCc1ccc(-c2noc(CNC(=O)[C@@H](N)Cc3ccccc3)n2)cc1 [Compound 9ac, (S)-2-amino-N-((3-(4-decylphenyl)-1,2,4-oxadiazol-5-yl)methyl)-3-phenylpropanamide hydrochloride] |
| > 2000 nM | CCCCCCCCCCc1ccc(-c2noc(C(=O)NCCCN)n2)cc1 [Compound 16b, N-(3-aminopropyl)-3-(4-decylphenyl)-1,2,4-oxadiazole-5-carboxamide hydrochloride] |
| > 2000 nM | CCCCCCCCCCc1ccc(-c2noc(CNC(=O)CN(C)C)n2)cc1 [Compound 9ab, N-((3-(4-decylphenyl)-1,2,4-oxadiazol-5-yl)methyl)-2-(dimethylamino)acetamide hydrochloride] |
| ≤ 2000 nM | CCCCCCCCCCc1ccc(-c2noc(CNC(=O)C[C@@H]3CCNC3)n2)cc1 [Compound 9k, (S)—N-((3-(4-decylphenyl)-1,2,4-oxadiazol-5-yl)methyl)-2-(pyrrolidin-3-yl)acetamide hydrochloride] |
| > 2000 nM | CCCCCCCCCCc1ccc(-c2noc(CNC(=O)CN3CCNCC3)n2)cc1 [Compound 9c, N-((3-(4-decylphenyl)-1,2,4-oxadiazol-5-yl)methyl)-2-(piperazin-1-yl)acetamide hydrochloride] |
| > 2000 nM | CCCCCCCCCCc1ccc(-c2noc(CNC(=O)[C@H]3CCNC3)n2)cc1 [Compound 9x, (S)—N-((3-(4-decylphenyl)-1,2,4-oxadiazol-5-yl)methyl)pyrrolidine-3-carboxamide hydrochloride] |
| ≤ 2000 nM | CCCCCCCCCCc1ccc(-c2noc([C@@H]3CCN(C(=O)[C@@H](N)C(C)C)C3)n2)cc1 [Compound 9ai, (S)-2-amino-1-((R)-3-(3-(4-decylphenyl)-1,2,4-oxadiazol-5-yl)pyrrolidin-1-yl)-3-methylbutan-1-one 2,2,2-trifluoroacetate] |
| ≤ 2000 nM | CCCCCCCCCCc1ccc(-c2noc(CNC(=O)[C@@H]3CCN3)n2)cc1 [Compound 9z, (S)—N-((3-(4-decylphenyl)-1,2,4-oxadiazol-5-yl)methyl)azetidine-2-carboxamide 2,2,2-trifluoroacetate] |
| ≤ 2000 nM | CCCCCCCCCCc1ccc(-c2noc([C@@H](N)CCN)n2)cc1 [Compound 19c, (S)-1-(3-(4-decylphenyl)-1,2,4-oxadiazol-5-yl)propane-1,3-diamine dihydrochloride] |
| ≤ 2000 nM | CCCCCCCCCCc1ccc(-c2noc(CNC(=O)C3CCCCCN3)n2)cc1 (stereo not shown) [Compound 9u, N-((3-(4-decylphenyl)-1,2,4-oxadiazol-5-yl)methyl)azepane-2-carboxamide hydrochloride] |
